PubChem BioAssay (NCI)
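Results reflect a 48-hour exposure of cells in 96-well plates to compound at five concentrations. Here, GI50 denotes the concentration required for 50% inhibition of growth. TGI: concentration producing complete growth inhibition.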

system: DU-145 prostate; experiment: DTP human tumour cell line panel, 48 h

With C[C@H]1C(=O)O[C@@H]2CCN3CC=C(COC(=O)[C@](C)(O)[C@@]1(C)O)[C@H]23 as the molecule, how does the TGI read?
The TGI was > 100 µM.

Which TGI does the source give for CCOC(=O)c1c2c(n(Cc3ccccc3)c1C)C(=O)C(=O)c1ccccc1-2 here?
Its TGI is 0.972 µM.

How did the TGI turn out when CN(C)CCCn1cnc2cc(Cl)c(Cl)cc21 was run?
Its TGI is > 100 µM.

For NCCCn1c2c(c3ccc([N+](=O)[O-])cc3c1=O)C(=O)c1ccccc1-2, which GI50 is on record?
Its GI50 is 0.0455 µM.

And the TGI?
Its TGI is 0.474 µM.

O=C1NI(C#Cc2ccccc2)c2ccccc21 was tested. Which TGI did it give?
Its TGI is > 100 µM.

For CCc1nc(N)nc(N)c1-c1ccc([N+](C)(C)C)cc1, which TGI is on record?
Its TGI is > 100 µM.

How did the TGI turn out when Cc1cc2c(cc1C(=O)c1ccc(N)cc1)OCO2 was run?
The TGI was > 100 µM.

Which TGI does the source give for NCCc1cc(O)c(O)cc1O here?
Its TGI is 32.4 µM.

For COc1ccc(C2=C3SC=c4ccccc4=C3ON=C2c2ccccc2)cc1, which TGI is on record?
Its TGI is > 100 µM.

CC(=O)NNc1nc(-c2ccc([N+](=O)[O-])cc2)c(C#N)c(=O)n1C was tested. Which TGI did it give?
The TGI was > 100 µM.

Which GI50 does the source give for COc1cc(C2CC(c3cccc(Nc4ccncc4)c3)=NN2c2ccc(Cl)cc2)cc(OC)c1OC (stereo not given) here?
The GI50 was 1.78 µM.

What about the TGI of the same molecule?
Its TGI is 3.17 µM.

system: XF 498 CNS; experiment: DTP human tumour cell line panel, 48 h

For Nc1n[nH]c(=O)c2c1c(I)cn2C1OC(CO)C(O)C1O (stereo not given), which TGI is on record?
The TGI was 8.3 µM.

With COc1cc(/C=C/C(=O)Oc2ccc(NC(C)=O)cc2)ccc1C(=O)O/C=C/c1ccccc1 as the molecule, how does the TGI read?
The TGI was > 100 µM.

COc1ccc2c(c1)CCCN2CCCCCCCCCCN(CCC(C)C)CCC(C)C was tested. Which TGI did it give?
Its TGI is 20.9 µM.

O=P1(c2ccccc2)Nc2ccccc2SSc2ccccc2N1 was tested. Which TGI did it give?
Its TGI is 32.7 µM.

For CCCOC(=O)CNC(=O)OC(C)(C)C, which TGI is on record?
The TGI was > 100 µM.

Which TGI does the source give for CN(C)CCNC(=O)c1cccc2ccc(-c3ccc(F)cc3)nc12 here?
The TGI was 10.2 µM.

system: BT-549 breast; experiment: DTP human tumour cell line panel, 48 h

How did the TGI turn out when COc1ccc(-c2nc3ncccn3c2-c2ccc(SC)cc2)cc1 was run?
Its TGI is 46.5 µM.

For C[C@H]1C(=O)O[C@@H]2CCN3CC=C(COC(=O)[C@](C)(O)[C@@]1(C)O)[C@H]23, which TGI is on record?
Its TGI is > 100 µM.

Which TGI does the source give for CN(C)CCCn1cnc2cc(Cl)c(Cl)cc21 here?
The TGI was > 100 µM.

Which results are given for NCCCn1c2c(c3ccc([N+](=O)[O-])cc3c1=O)C(=O)c1ccccc1-2?
GI50: 0.235 µM; TGI: 0.881 µM

O=C1NI(C#Cc2ccccc2)c2ccccc21 was tested. Which TGI did it give?
Its TGI is > 100 µM.

Which TGI does the source give for CCc1nc(N)nc(N)c1-c1ccc([N+](C)(C)C)cc1 here?
Its TGI is > 100 µM.

Which TGI does the source give for Cc1cc2c(cc1C(=O)c1ccc(N)cc1)OCO2 here?
Its TGI is > 100 µM.

With NCCc1cc(O)c(O)cc1O as the molecule, how does the TGI read?
The TGI was 70.6 µM.

How did the TGI turn out when COc1ccc(C2=C3SC=c4ccccc4=C3ON=C2c2ccccc2)cc1 was run?
Its TGI is > 100 µM.

How did the TGI turn out when CC(=O)NNc1nc(-c2ccc([N+](=O)[O-])cc2)c(C#N)c(=O)n1C was run?
The TGI was 23 µM.

system: M19-MEL melanoma; experiment: DTP human tumour cell line panel, 48 h

Which TGI does the source give for O=C(Nc1ccc([N+](=O)[O-])cc1[N+](=O)[O-])C(=O)C(C(=O)c1ccc2ccccc2c1)C1OC(=O)c2ccccc21 (stereo not given) here?
Its TGI is 29.6 µM.

How did the TGI turn out when COc1cc(/C=C/C(=O)Oc2ccc(NC(C)=O)cc2)ccc1C(=O)O/C=C/c1ccccc1 was run?
Its TGI is > 100 µM.

With COc1ccc2c(c1)CCCN2CCCCCCCCCCN(CCC(C)C)CCC(C)C as the molecule, how does the TGI read?
Its TGI is 30.7 µM.

How did the TGI turn out when O=P1(c2ccccc2)Nc2ccccc2SSc2ccccc2N1 was run?
Its TGI is 34.4 µM.

Which results are given for N=C1C(=N)c2ccccc2-c2ccccc21.N=C1C(=N)c2ccccc2-c2ccccc21.N=C1C(=N)c2ccccc2-c2ccccc21.[Cl-].[Ru+2]?
GI50: 1.46 µM; TGI: 2.86 µM

For CCCOC(=O)CNC(=O)OC(C)(C)C, which TGI is on record?
Its TGI is > 100 µM.

For CN(C)CCNC(=O)c1cccc2ccc(-c3ccc(F)cc3)nc12, which TGI is on record?
Its TGI is 15.9 µM.

system: MDA-N; experiment: DTP human tumour cell line panel, 48 h

For C[C@H]1C(=O)O[C@@H]2CCN3CC=C(COC(=O)[C@](C)(O)[C@@]1(C)O)[C@H]23, which TGI is on record?
Its TGI is > 100 µM.

CN(C)CCCn1cnc2cc(Cl)c(Cl)cc21 was tested. Which TGI did it give?
Its TGI is > 100 µM.

How did the TGI turn out when O=C1NI(C#Cc2ccccc2)c2ccccc21 was run?
Its TGI is > 100 µM.

For CCc1nc(N)nc(N)c1-c1ccc([N+](C)(C)C)cc1, which TGI is on record?
Its TGI is > 100 µM.

How did the TGI turn out when Cc1cc2c(cc1C(=O)c1ccc(N)cc1)OCO2 was run?
The TGI was 35.1 µM.

With NCCc1cc(O)c(O)cc1O as the molecule, how does the TGI read?
The TGI was 47 µM.

For CC(=O)NNc1nc(-c2ccc([N+](=O)[O-])cc2)c(C#N)c(=O)n1C, which TGI is on record?
Its TGI is > 100 µM.

system: A498 renal; experiment: DTP human tumour cell line panel, 48 h

How did the TGI turn out when Nc1n[nH]c(=O)c2c1c(I)cn2C1OC(CO)C(O)C1O (stereo not given) was run?
The TGI was > 100 µM.

How did the TGI turn out when O=C(Nc1ccc([N+](=O)[O-])cc1[N+](=O)[O-])C(=O)C(C(=O)c1ccc2ccccc2c1)C1OC(=O)c2ccccc21 (stereo not given) was run?
Its TGI is 52.7 µM.

For COc1cc(/C=C/C(=O)Oc2ccc(NC(C)=O)cc2)ccc1C(=O)O/C=C/c1ccccc1, which TGI is on record?
Its TGI is > 100 µM.

How did the TGI turn out when COc1ccc2c(c1)CCCN2CCCCCCCCCCN(CCC(C)C)CCC(C)C was run?
Its TGI is 31 µM.

With O=P1(c2ccccc2)Nc2ccccc2SSc2ccccc2N1 as the molecule, how does the TGI read?
The TGI was 41.2 µM.

With C[C@H]1C(=O)O[C@@H]2CCN3CC=C(COC(=O)[C@](C)(O)[C@@]1(C)O)[C@H]23 as the molecule, how does the TGI read?
The TGI was > 100 µM.

With CCOC(=O)c1c2c(n(Cc3ccccc3)c1C)C(=O)C(=O)c1ccccc1-2 as the molecule, how does the GI50 read?
Its GI50 is 2.84 µM.

What about the TGI of the same molecule?
The TGI was 5.67 µM.

With CN(C)C(=O)/C=C/c1c[nH]c(=O)[nH]c1=O as the molecule, how does the TGI read?
Its TGI is > 500 µM.

Which TGI does the source give for CN(C)CCCn1cnc2cc(Cl)c(Cl)cc21 here?
Its TGI is > 100 µM.

What does the source list for NCCCn1c2c(c3ccc([N+](=O)[O-])cc3c1=O)C(=O)c1ccccc1-2?
GI50: 0.277 µM; TGI: 1.45 µM

For O=C1NI(C#Cc2ccccc2)c2ccccc21, which TGI is on record?
Its TGI is > 100 µM.

For CCc1nc(N)nc(N)c1-c1ccc([N+](C)(C)C)cc1, which TGI is on record?
The TGI was > 100 µM.

Which TGI does the source give for NCCc1cc(O)c(O)cc1O here?
Its TGI is > 100 µM.

How did the TGI turn out when COc1ccc(C2=C3SC=c4ccccc4=C3ON=C2c2ccccc2)cc1 was run?
The TGI was > 100 µM.

CC(=O)NNc1nc(-c2ccc([N+](=O)[O-])cc2)c(C#N)c(=O)n1C was tested. Which TGI did it give?
Its TGI is 75.5 µM.

Which GI50 does the source give for COc1cc(C2CC(c3cccc(Nc4ccncc4)c3)=NN2c2ccc(Cl)cc2)cc(OC)c1OC (stereo not given) here?
Its GI50 is 1.32 µM.

And the TGI?
Its TGI is 6.26 µM.

CN(C)CCNC(=O)c1cccc2ccc(-c3ccc(F)cc3)nc12 was tested. Which TGI did it give?
Its TGI is 17.5 µM.
